Measurements taken from patent US6528685B2 (Teva Pharmaceutical Industries, Ltd., priority 1994, dated 2003).

Key:
hypoxia-lesioned rats = assay: Water maze working memory test, Experiment 3B; format: in vivo, rat; details: hypoxia-lesioned rats; 0.5 mg/kg/day 60 days; ± SEM
Text: The apparatus used consists of a circular water tank 160 cm in diameter filled with water to a depth of 38 cm. The water was made cloudy by the addition of milk powder. A clear Plexiglass 15 cm platform, supported by a movable stand rest on the bottom of the tank was submerged to a depth of 2 cm from the water surface. Normally a swimming rat cannot perceive the location of the platform but it may recall it from a previous experience and training, unless it suffers from some memory impairment. The time taken to locate the platform is measured in seconds and referred to as the latency. During the experiment all orientational cues such as ceiling lights etc. remained unchanged. Longer latencies are observed with rats with some impairment to their memory.
Each rat was given two trails a day for four days, entering the pool from the same point of entry each day. The position of the platform was changed daily to one of four predetermined positions. Each rat was tested twice each day over the four days, referred to as runs 1 and 2 on sessions I-IV. Initially the rat was placed on the platform for 60 seconds. It was then removed and placed at the point of entry and allowed a maximum of 120 seconds to locate the platform (run 1). The second run for that day followed 60 seconds later (run 2). In the second run the rat is expected to find the platform much sooner, having benefitted from its earlier experience. […] The average latency of run 1 in four sessions on four different days was then related to the corresponding parameter of run 2. The smaller the ratio of […], the better the short range learning score.
Table 8. […] The data are the latencies in seconds±SEM that it took a given group to locate a submerged and invisible platform the location of which was shifted from one session to the other. The time interval between sessions was one day, and that between successive runs was 60 seconds. (n=7-8 rats per group)

hypoxic rat [1] = assay: α-MpT-induced hypokinesia in hypoxic rat, Experiment 1A; format: in vivo; details: for Locomotor activity after α-MpT treatment, recorded as total movements / Locomotor activity after αMpT treatment, recorded as big movements: hypoxic rats, 0.5 mg/kg/day by gavage 70-80 days; for Locomotor activity after αMpT treatment, recorded as big movements: Mean ± SEM
Experimental: (§1) Wistar male rats, 15-19 month-old, were exposed to a single hypoxic episode which is assumed to decrease the level of dopamine in the brain. […] The drugs were administered by gavage, using a special syringe equipped with rounded tip that could be directed into the stomach. The dose was contained in 0.3-0.5 mL of distilled water. The rats were pretreated for 70-80 days with daily doses of the test drugs and received intra-peritoneal (i.p.) α-MpT (α-methyl-p-tyrosine) at a dose of 100 mg/kg in 0.3-0.5 mL saline. Controls received saline. α-MpT is assumed to inhibit the formation of L-Dopa from tyrosine and, consequently the formation of dopamine itself. Lack of central dopamine is expressed as hypokinesia. Following the injection of α-MpT, motor activity was recorded for the duration of 10 hours. Locomotion scores were taken in seven fully-computerized cages (26×25 cm) having a grid of infra-red beams at 4 cm-intervals.
(§2) Crossing of a beam initiated an electric signal which was fed into a computer. The number of crossings over a given period provided a measure of locomotion.
(§3) The records gave two data categories: (a) “small movements” originating in stationary activities such as grooming and scratching and (b) “big movements” originating in ambulation and recorded as the simultaneous crossing of more than two beams. “Total movements” include both categories.
(§4) Counts of motor activity in the presence of α-MpT were related as percent with respect to counts in its absence in the corresponding control group (unlesioned or hypoxia-lesioned). Motor activity counts of drug-treated rats were related to the hypoxia saline-treated as 100%. All behavioral tests were performed 90-120 min. after administration of the last dose of the test compound.

hypoxic rat [2] = assay: Amphetamine-induced stereotype behavior in hypoxic rat, Experiment 2A; format: in vivo; details: hypoxic group, with respect to hypoxia and amphetamine control
Experimental: Wistar male rats, 15-19 month-old, were exposed to a single hypoxic episode as described above. […] Rats pretreated for 29 days with daily doses of the test drugs (0.5 mg/kg), received a sub-cutaneous (s.c.) injection of D-amphetamine sulfate at a dose of 0.5 mg/kg. D-amphetamine is known to cause an enhancement of the effects of CNS dopamine by a mechanism involving dopamine release, and blockage of its uptake and its metabolism by MAO. The behavioral manifestation of amphetamine action is a stereotypic pattern of lateral head movements. Counts of lateral head movements were taken over two successive intervals of 1 min each, 45-60 min after the injection of amphetamine and then averaged.

hypoxic rat [3] = assay: α-MpT-induced hypokinesia in hypoxic rat, Experiment 1B; format: in vivo; details: hypoxic rats, 0.3 mg/Kg daily i.p. 21 days; for Locomotor activity after α-MpT treatment, recorded as big movements: Mean ± SEM
Experimental: as §1, §2, §3, §4
The procedure of Experiment 1A was repeated with the following changes:
(1) Animal: 11-14 month-old rats.
The drugs were given i.p.
(3) Duration of the treatment: 21 days.
(4) Dose of α-MpT: 70 mg/Kg.

hypoxic rat [4] = assay: Passive avoidance test in hypoxic rat, Experiment 3A; format: in vivo; details: hypoxic rats
Experimental: Wistar male rats, 15-19 month-old, were exposed to a single hypoxic episode as described above. […] The passive avoidance test was performed on day 13 after initiation the drug treatment. The apparatus consisted of a lit chamber that can be separated from a dark chamber by a sliding door. At training, a rat is placed in the lit chamber for 30 seconds, then the door is opened. The rat moves to the dark chamber after a short delay—the latency, that is recorded. Upon entry into the dark chamber, the door is shut closed and a 0.3-mA footshock is delivered for 3 seconds by a Grass S-88 stimulator. Retention of the experience is determined after 48 hours by repeating the test and recording the latency to an arbitrary maximum of 300 seconds. Longer latencies are ascribed to retention of memory and improved cognition.

Compound: C#CCN(C)[C@H](C)Cc1ccccc1 [deprenyl]
- latency to locate platform, Session I Run 1 (hypoxia-lesioned rats): 42 ± 16 s
- latency to locate platform, Session I Run 2 (hypoxia-lesioned rats): 40 ± 17 s
- latency to locate platform, Session II Run 1 (hypoxia-lesioned rats): 42 ± 18 s
- latency to locate platform, Session II Run 2 (hypoxia-lesioned rats): 35 ± 16 s
- latency to locate platform, Session III Run 1 (hypoxia-lesioned rats): 32 ± 15 s
- latency to locate platform, Session III Run 2 (hypoxia-lesioned rats): 8 ± 2 s
- latency to locate platform, Session IV Run 1 (hypoxia-lesioned rats): 19 ± 6 s
- latency to locate platform, Session IV Run 2 (hypoxia-lesioned rats): 12 ± 4 s
- Locomotor activity after α-MpT treatment, recorded as total movements (hypoxic rat [1]; hour 1 after α-MpT): 88 ± 23%
- Locomotor activity after αMpT treatment, recorded as big movements (hypoxic rat [1]; hour 1 after α-MpT): 61 ± 15%
- Locomotor activity after α-MpT treatment, recorded as total movements (hypoxic rat [1]; hour 2 after α-MpT): 131 ± 30%
- Locomotor activity after αMpT treatment, recorded as big movements (hypoxic rat [1]; hour 2 after α-MpT): 103 ± 22%
- Locomotor activity after α-MpT treatment, recorded as total movements (hypoxic rat [1]; hour 3 after α-MpT): 141 ± 26%
- Locomotor activity after αMpT treatment, recorded as big movements (hypoxic rat [1]; hour 3 after α-MpT): 184 ± 39%
- Locomotor activity after α-MpT treatment, recorded as total movements (hypoxic rat [1]; hour 4 after α-MpT): 191 ± 45%
- Locomotor activity after αMpT treatment, recorded as big movements (hypoxic rat [1]; hour 4 after α-MpT): 85 ± 34%
- Locomotor activity after α-MpT treatment, recorded as total movements (hypoxic rat [1]; hour 5 after α-MpT): 229 ± 40%
- Locomotor activity after αMpT treatment, recorded as big movements (hypoxic rat [1]; hour 5 after α-MpT): 171 ± 61%
- Locomotor activity after αMpT treatment, recorded as big movements (hypoxic rat [1]; hour 6 after α-MpT): 65 ± 17%
- Locomotor activity after α-MpT treatment, recorded as total movements (hypoxic rat [1]; hour 7 after α-MpT): 204 ± 7%
- Locomotor activity after αMpT treatment, recorded as big movements (hypoxic rat [1]; hour 7 after α-MpT): 96 ± 29%
- Locomotor activity after α-MpT treatment, recorded as total movements (hypoxic rat [1]; hour 8 after α-MpT): 131 ± 23%
- Locomotor activity after αMpT treatment, recorded as big movements (hypoxic rat [1]; hour 8 after α-MpT): 91 ± 40%
- Locomotor activity after α-MpT treatment, recorded as total movements (hypoxic rat [1]; hour 9 after α-MpT): 137 ± 21%
- Locomotor activity after αMpT treatment, recorded as big movements (hypoxic rat [1]; hour 9 after α-MpT): 84 ± 23%
- Locomotor activity after α-MpT treatment, recorded as total movements (hypoxic rat [1]; hour 10 after α-MpT): 116 ± 22%
- Locomotor activity after αMpT treatment, recorded as big movements (hypoxic rat [1]; hour 10 after α-MpT): 29 ± 10%
- effect on hypokinetic syndrome, big movements, in words (hypoxic rat [1]; hypoxia group, ten hour observation): less effective
- level of activity (total movements) versus corresponding control group, in words (hypoxic rat [1]; hypoxic rats pretreated): much higher
- potentiation of stereotypic behavior induced by amphetamine, in words (hypoxic rat [2]): did not potentiate
- Locomotor activity after α-MpT treatment, recorded as total movements (hypoxic rat [3]; hour 1 after α-MpT 70 mg/Kg): 68 ± 9%
- Locomotor activity after α-MpT treatment, recorded as big movements (hypoxic rat [3]; hour 1 after α-MpT 70 mg/Kg): 70 ± 10%
- Locomotor activity after α-MpT treatment, recorded as total movements (hypoxic rat [3]; hour 2 after α-MpT 70 mg/Kg): 95 ± 11%
- Locomotor activity after α-MpT treatment, recorded as big movements (hypoxic rat [3]; hour 2 after α-MpT 70 mg/Kg): 91 ± 19%
- Locomotor activity after α-MpT treatment, recorded as total movements (hypoxic rat [3]; hour 3 after α-MpT 70 mg/Kg): 126 ± 22%
- Locomotor activity after α-MpT treatment, recorded as big movements (hypoxic rat [3]; hour 3 after α-MpT 70 mg/Kg): 85 ± 19%
- Locomotor activity after α-MpT treatment, recorded as total movements (hypoxic rat [3]; hour 4 after α-MpT 70 mg/Kg): 118 ± 20%
- Locomotor activity after α-MpT treatment, recorded as big movements (hypoxic rat [3]; hour 4 after α-MpT 70 mg/Kg): 88 ± 23%
- Locomotor activity after α-MpT treatment, recorded as total movements (hypoxic rat [3]; hour 5 after α-MpT 70 mg/Kg): 83 ± 24%
- Locomotor activity after α-MpT treatment, recorded as big movements (hypoxic rat [3]; hour 5 after α-MpT 70 mg/Kg): 87 ± 11%
- Locomotor activity after α-MpT treatment, recorded as total movements (hypoxic rat [3]; hour 6 after α-MpT 70 mg/Kg): 78 ± 9%
- Locomotor activity after α-MpT treatment, recorded as big movements (hypoxic rat [3]; hour 6 after α-MpT 70 mg/Kg): 67 ± 8%
- Locomotor activity after α-MpT treatment, recorded as total movements (hypoxic rat [3]; hour 7 after α-MpT 70 mg/Kg): 56 ± 7%
- Locomotor activity after α-MpT treatment, recorded as big movements (hypoxic rat [3]; hour 7 after α-MpT 70 mg/Kg): 62 ± 9%
- Locomotor activity after α-MpT treatment, recorded as total movements (hypoxic rat [3]; hour 8 after α-MpT 70 mg/Kg): 185 ± 13%
- Locomotor activity after α-MpT treatment, recorded as big movements (hypoxic rat [3]; hour 8 after α-MpT 70 mg/Kg): 70 ± 9%
- Locomotor activity after α-MpT treatment, recorded as total movements (hypoxic rat [3]; hour 9 after α-MpT 70 mg/Kg): 111 ± 12%
- Locomotor activity after α-MpT treatment, recorded as big movements (hypoxic rat [3]; hour 9 after α-MpT 70 mg/Kg): 132 ± 24%
- Locomotor activity after α-MpT treatment, recorded as total movements (hypoxic rat [3]; hour 10 after α-MpT 70 mg/Kg): 61 ± 12%
- Locomotor activity after α-MpT treatment, recorded as big movements (hypoxic rat [3]; hour 10 after α-MpT 70 mg/Kg): 54 ± 13%
- passive avoidance performance, in words (hypoxic rat [4]): showed no improvement
